What is called LD50 is the dose expected to kill half of the subjects tested. A higher LD50 goes with lower toxicity.

Results on five molecules are retold here after patent publication US4678783A, “Substituted isoquinolinesulfonyl compounds” (Asahi Kasei Kogyo Kabushiki Kaisha, priority 1984, dated 1987).

Read-outs that look alike come from different tables or passages of the source.

Data set [1] deals with male spontaneously hypertensive rats (SHR). The experiment in a line: Reduction of Blood Pressure (systolic, tail plethysmographic method, oral). As to conditions: 100 mg/kg. The data set is classed as in vivo, rat (SHR, Wister Kyoto). As to the method:
Male spontaneously hypertensive rats (SHR, Wister Kyoto) weighing 300 to 350 g were used. Systolic blood pressure was measured indirectly by the tail plethysmographic method in conscious SHR, just prior to, and 1, 2, 4 and 6 hours after oral administration of test drugs. Test drugs, dissolved in deionized water, were administered orally in a volume of 10 ml-solution/kg-rat. Reduction in systolic blood pressure (ΔP, mmHg) was calculated by substracting a systolic blood pressure after administration from that just prior to administration.
Effect of the compounds of the present invention on reduction of blood pressure was examined according to the method as mentioned hereinbefore.

Data set [2] deals with femoral artery. The experiment in a line: Blood Flow Volume Increase of Femoral Artery. As to conditions: intravenous, anesthetized dogs. The data set is classed as in vivo, Mongrel dogs. The method, then:
(§1) A plethysmographic probe (manufactured and sold by NIHON KODEN CO., LTD.) was mounted on the femoral and vertebral arteries, and blood flow volume was measured by means of a electromagnetic blood flowmeter (type:MF-27, manufactured and sold by NIHON KODEN CO., LTD.). Under these conditions, compounds of the present invention were intravenously administered through a polyethylene tube inserted to a femoral veinlet, and change in blood flow volume was measured by means of the electromagnetic blood flowmeter.
(§2) Effect of the compounds of the present invention on dilation of femoral and vertebral arteries was examined according to the method as mentioned hereinbefore.

The subject of data set [3] is mesenteric artery of a rabbit. The experiment in a line: Relaxation of Mesenteric Artery (KCl-contracted spiral strip). Further details: species or system rabbit of Japanese local variety. As to conditions: Oryctolagus cuniculus. As to the method: A rabbit of Japanese local variety weighing about 3 kg was subjected to blood-letting to death. Then, abdomen of the rabbit was dissected to pick up a mesenteric artery. […] Thus, the shrinkage and relaxation of the artery was ready to be measured as a load on the transducer. To the organ bath, KCl was added in an amount which makes the artery shrink at a half length that in 15 to 20 mM aqueous solution. Then, hydrochlorides of the compounds of the present invention were added to the organ bath to observe relaxation effect on the artery.
Effect of the compounds of the present invention on relaxation of mesenteric artery was examined according to the method as mentioned hereinbefore.

Data set [4] in a line: Acute Toxicity. As to conditions: mouse, in vivo; ddY male mice. The method, then:
Acute toxicity of the compounds of the present invention was determined according to the method given below, and the results are shown in Table 15. […] It is known from the results that the acute toxicity of the compounds of the present invention is satisfactorily low.
Using ddY male mice, acute toxicity of the compounds of the present invention was examined according to the method proposed by K. Takagi et al. (K. Takagi and H. Ozawa, "Experimental Techniques in Pharmacology," p200-206 (1960), NANZANDO CO., LTD.).
Acute toxicity test of the compounds of the present invention was effected according to the method as mentioned hereinbefore.

Data set [5] deals with vertebral artery. The experiment in a line: Blood Flow Volume Increase of Vertebral Artery. In kind it is in vivo, Mongrel dogs. As to conditions: intravenous, anesthetized dogs. As to the method: as §1, §2
Data set [6] has as its system basilar artery. The data set can be described thus: Effect on a "Two-Hemorrhage" Canine Model of Delayed Cerebral Vasospasm. The data set is classed as in vivo, Mongrel dogs. As to conditions: intravenous infusion over 30 minutes on Day 7. The text has this:
The isoquinolinesulfonyl compound represented by the formula (I) and salt thereof with a pharmacologically acceptable acid according to the present invention can increase the diameter of a blood vessel, and have an excellent smooth muscle relaxation action for a blood vessel, an excellent flow volume increase action for blood and an antihypertensive action. […] The above-mentioned relaxation action for a blood vessel was confirmed by the relaxation of the mesenteric artery of a rabbit in accordance with the method described later. The above-mentioned flow volume increase action for blood was confirmed by the blood flow volume increase of dog's femoral and vertebral arteries in accordance with the method described later. The above-mentioned antihypertensive action was confirmed by the indirect tail plethysmographic method of systolic blood pressure after oral administration of test drugs using male spontaneously hypertensive rats in accordance with the method described later. The effects of the isoquinolinesulfonyl derivatives of this invention on a "two-hemorrhage" canine model of delayed cerebral vasospasm were examined. The method of inducing a cerebral vasospasm was the same as that reported by Varsos et al. (Journal of Neurosurgery, volume 58, p11-17, 1983). […] As far as is known, these isoquinolinesulfonyl derivatives are the first drugs which can reverse "two-hemorrhage" cerebral vasospasm by its systemic use.
Mongrel dogs of either sex weighing 7 to 11 kg were used. All procedures were performed under anesthesia with sodium pentobarbital (20 to 30 mg/kg, intravenous administration) after premedication with ketamine hydrochloride (12 mg/kg, intramuscular administration) and spontaneous respiration through an endotracheal intubation.
The method of inducing a "two-hemorrhage" canine model of subarachnoid hemorrhage was essentially the same as that reported by Varsos et al. (Journal of Neurosurgery, volume 58, p 11-17, 1983); two successive administrations were effected, two days apart (on Day 1 and Day 3), of fresh autogenous blood into the cisterna magna. A control angiogram was taken by a direct puncture of the vertebral artery on Day 1 before the blood injection. The second angiogram was made to confirm the presence of a vasospasm on Day 7.
On Day 7, after the occurrence of a chronic vasospasm was confirmed by the second angiogram, the compounds of the present invention were intrvenously infused from the femoral vein with a Harvard pump over a period of 30 minutes. Angiograms were taken from the initiation of the infusion.
The diameter of the basilar artery was measured on the angiogram by means of a microdensitometer (SAKURA DENSITOMETER PD-7R). The effect on this cerebral vasospasm model of the compounds of the present invention was expressed as an increased percentage of the diameter after the infusion of the compounds of the present invention to that before the infusion.
Effect of the compounds of the present invention on a "two-hemorrhage" canine model of delayed cerebral vesospasm was examined according to the method as mentioned hereinbefore.

[7] abbreviates: concentration of the hydrochloride attaining 50% of complete relaxation, rabbit mesenteric artery contracted with KCl, read-out: ED50 (the source's name).

Consider `CC1CN(S(=O)(=O)c2cccc3cnccc23)CCCN1` (stereo not shown) [(3), 1-(5-isoquinolinesulfonyl)-3-methylhomopiperazine], for which, in data set [1], the “ΔPmax (maximally reduced blood pressure)” value is reported as 65 mmHg. Further, the “Increase in femoral artery blood flow” value in data set [2] (0.3 mg/kg) was 35%. Besides, in data set [3] (setting [7]), the EC50 is 1600 nM. This molecule also showed an LD50 in data set [4] of 120 mg/kg. In data set [5] (0.3 mg/kg), the “Increase in vertebral artery blood flow” value worked out at 78%.
As for `O=S(=O)(c1cccc2cnccc12)N1CCCNCC1` [Compound (1), 1-(5-isoquinolinesulfonyl)homopiperazine], in data set [1], the “ΔPmax (maximally reduced blood pressure)” value was determined as 80 mmHg. Moreover, in data set [2] (0.3 mg/kg), the “Increase in femoral artery blood flow” value was found to be 48%. The EC50 in data set [3] (setting [7]) is 800 nM. This molecule also came in with a median lethal dose (LD50) in data set [4] of 73.5 mg/kg. Further, the “Increase in vertebral artery blood flow” value in data set [5] (0.3 mg/kg) was 160%. Also, the “Increase in diameter of basilar artery” value in data set [6] (1 mg/kg) was found to be 21%; in data set [6] (3 mg/kg) it was 33%; in data set [6] (10 mg/kg) it was 45%.
With `O=S(=O)(c1cccc2cnccc12)N1CCNCC(Cc2ccccc2)C1` (stereo not shown) [Compound (18), 1-(5-isoquinolinesulfonyl)-6-benzylhomopiperazine], the “ΔPmax (maximally reduced blood pressure)” value in data set [1] was 43 mmHg. In addition, the “Increase in femoral artery blood flow” value in data set [2] (0.3 mg/kg) is recorded as 45%. In addition, the EC50 in data set [3] (setting [7]) amounted to 10000 nM. Moreover, in data set [4], the LD50 is 197 mg/kg. Besides, the “Increase in vertebral artery blood flow” value in data set [5] (0.3 mg/kg) was determined as 110%.
As for `O=S(=O)(c1cccc2c(O)nccc12)N1CCCNCC1` [Compound (83), 1-(1-hydroxy-5-isoquinolinesulfonyl)homopiperazine], the “ΔPmax (maximally reduced blood pressure)” value in data set [1] was 42 mmHg. For the same molecule, in data set [2] (0.3 mg/kg), the “Increase in femoral artery blood flow” value is reported as 30%. Further, in data set [3] (read-out: ED50), the EC50 is 3000 nM. Moreover, the LD50 in data set [4] turned out to be 145 mg/kg. The “Increase in vertebral artery blood flow” value in data set [5] (0.3 mg/kg) is listed as 48%. Further, the “Increase in diameter of basilar artery” value is 19% in data set [6] (3 mg/kg) and 20% in data set [6] (10 mg/kg).
For the molecule `O=S(=O)(c1cccc2cnccc12)N1CCNCC1` [compound 2, reference compound], the “ΔPmax (maximally reduced blood pressure)” value in data set [1] came to 11 mmHg. Also, the “Increase in femoral artery blood flow” value in data set [2] (0.3 mg/kg) is 20%; in data set [2] (1 mg/kg), 69%. For the same molecule, the LD50 in data set [4] came out at 29 mg/kg. Also, the “Increase in vertebral artery blood flow” value in data set [5] (0.3 mg/kg) is reported as 36%; in data set [5] (1 mg/kg) it was 98%.
